In patent US20090253669A1, “Substituted Sulfonamide Compounds” (GRUENENTHAL GmbH, priority 2008, published 2009):

Legend:
[1] = biological target: T1, human B1R receptor (hB1R) (Homo sapiens, UniProt P46663); test: FLIPR Ca2+ assay on hB1R-transfected CHO K1 cells, antagonistic action; assay type: cell-based; conditions: CHO-K1, 10 μM test substance; agonist Lys-Des-Arg9-bradykinin 0.5 nM; % of maximum achievable inhibition; read-out: hB1R [10 μM] % inhibition
T1 construct: host or cells: CHO K1 cells
T1 sequence (P46663 1-353): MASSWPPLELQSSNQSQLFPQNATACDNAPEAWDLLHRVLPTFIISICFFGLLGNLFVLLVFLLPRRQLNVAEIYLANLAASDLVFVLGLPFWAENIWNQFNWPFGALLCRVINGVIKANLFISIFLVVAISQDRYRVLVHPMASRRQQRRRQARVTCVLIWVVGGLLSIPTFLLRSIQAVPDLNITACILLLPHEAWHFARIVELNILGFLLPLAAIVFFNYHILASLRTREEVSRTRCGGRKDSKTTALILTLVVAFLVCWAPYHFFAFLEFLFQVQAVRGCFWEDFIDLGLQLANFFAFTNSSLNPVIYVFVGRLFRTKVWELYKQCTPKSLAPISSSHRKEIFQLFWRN

[2] = biological target: T2, B1R receptor of the rat (rB1R) (Rattus norvegicus, UniProt P97583); test: FLIPR Ca2+ assay on rB1R-transfected CHO K1 cells, antagonistic action; assay type: cell-based; conditions: CHO-K1, 10 μM test substance; agonist Des-Arg9-bradykinin 100 nM; % of maximum achievable inhibition; read-out: rB1R [10 μM] % inhibition
T2 construct: host or cells: CHO K1 cells
T2 sequence (P97583 1-337): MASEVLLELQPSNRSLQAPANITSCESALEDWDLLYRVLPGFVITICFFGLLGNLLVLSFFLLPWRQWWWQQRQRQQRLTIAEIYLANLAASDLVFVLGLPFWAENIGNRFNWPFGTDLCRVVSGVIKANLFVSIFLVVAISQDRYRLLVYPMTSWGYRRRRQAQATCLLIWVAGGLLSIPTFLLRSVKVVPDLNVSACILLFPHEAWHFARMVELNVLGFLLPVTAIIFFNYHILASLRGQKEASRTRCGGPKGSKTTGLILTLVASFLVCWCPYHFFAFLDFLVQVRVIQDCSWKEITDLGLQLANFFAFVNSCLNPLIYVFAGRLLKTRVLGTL

Work on COc1cc(C)c(S(=O)(=O)N(C)CCOCC(=O)N(C)CC2CCC(CCc3ccccc3)(N3CCCC3)CC2)c(C)c1 (centres unmarked) [Compound 47, 2-(2-(4-methoxy-N,2,6-trimethylphenylsulfonamido)ethoxy)-N-methyl-N-((4-phenethyl-4-(pyrrolidin-1-yl)cyclohexyl)methyl)acetamide] yielded an inhibition at 10 µM [1] of 102% and an inhibition at 10 µM [2] of 100%.
With COc1cc(C)c(S(=O)(=O)N(C)CCOCC(=O)N(C)CCC2CCC(CCc3ccccc3)(N3CCCC3)CC2)c(C)c1 (centres unmarked) [Compound 58, 2-(2-(4-methoxy-N,2,6-trimethylphenylsulfonamido)ethoxy)-N-methyl-N-(2-(4-phenethyl-4-(pyrrolidin-1-yl)cyclohexyl)ethyl)acetamide] the inhibition at 10 µM [1] was 103% and the inhibition at 10 µM [2] was 100%.
Molecule CN(CC1CCC(Cc2ccccc2)(N2CCCC2)CC1)C(=O)COCC1CCc2ccccc2N1S(=O)(=O)c1ccc(Cl)c(Cl)c1 (centres unmarked) [Compound 127, N-((4-benzyl-4-(pyrrolidin-1-yl)cyclohexyl)methyl)-2-((1-(3,4-dichlorophenylsulfonyl)-1,2,3,4-tetrahydroquinolin-2-yl)methoxy)-N-methylacetamide] has an inhibition at 10 µM [1] of 90% and an inhibition at 10 µM [2] of 54%.
COc1cc(C)c(S(=O)(=O)N(C)CCOCC(=O)N2CCC(Cc3ccccc3)(N3CCN(C)CC3)C2)c(C)c1 (centres unmarked) [Compound 197, N-(2-(2-(3-benzyl-3-(4-methylpiperazin-1-yl)pyrrolidin-1-yl)-2-oxoethoxy)ethyl)-4-methoxy-N,2,6-trimethylbenzenesulfonamide] gave an inhibition at 10 µM [1] of 98% and an inhibition at 10 µM [2] of 99%.
For O=C(COCC1CCCN1S(=O)(=O)c1c(Cl)cc(Cl)cc1Cl)NC1CCC(c2ccccc2)(N2CCOCC2)CC1 (centres unmarked) [Compound 164, N-(4-morpholino-4-phenylcyclohexyl)-2-((1-(2,4,6-trichlorophenylsulfonyl)pyrrolidin-2-yl)methoxy)acetamide], the inhibition at 10 µM [1] was 74% and the inhibition at 10 µM [2] was 90%.
Molecule CN(C)C1(CCc2ccccc2)CCC(NC(=O)CC2c3ccccc3CCN2S(=O)(=O)c2ccc(Cl)c(Cl)c2)CC1 (centres unmarked) [Compound 1, 2-(2-(3,4-dichlorophenylsulfonyl)-1,2,3,4-tetrahydroisoquinolin-1-yl)-N-(4-(dimethylamino)-4-phenethylcyclohexyl)acetamide] has an inhibition at 10 µM [1] of 96% and an inhibition at 10 µM [2] of 105%.
In the case of CN(CCOCC(=O)NC1CCC(c2ccccc2)(N2CCCC2)CC1)S(=O)(=O)c1c(Cl)cc(Cl)cc1Cl (centres unmarked) [Compound 191, N-(4-phenyl-4-(pyrrolidin-1-yl)cyclohexyl)-2-(2-(2,4,6-trichloro-N-methylphenylsulfonamido)ethoxy)acetamide], the inhibition at 10 µM [1] is reported as 90% and the inhibition at 10 µM [2] is reported as 55%.
In the case of COc1cc(C)c(S(=O)(=O)N(C)CCOCC(=O)NCC2CCC(c3ccccc3)(N3CCOCC3)CC2)c(C)c1 (centres unmarked) [Compound 185, 2-(2-(4-methoxy-N,2,6-trimethylphenylsulfonamido)ethoxy)-N-((4-morpholino-4-phenylcyclohexyl)methyl)acetamide], the inhibition at 10 µM [1] is reported as 93% and the inhibition at 10 µM [2] is reported as 65%.
Work on CN(CCC1CCC(CCc2ccccc2)(N2CCCC2)CC1)C(=O)CC(NS(=O)(=O)c1ccc2ccccc2c1)c1ccccc1 (centres unmarked) [Compound 114, N-methyl-3-(naphthalene-2-sulfonamido)-N-(2-(4-phenethyl-4-(pyrrolidin-1-yl)cyclohexyl)ethyl)-3-phenylpropanamide] yielded an inhibition at 10 µM [1] of 96% and an inhibition at 10 µM [2] of 73%.
For Cc1cccc(Cl)c1S(=O)(=O)N1c2ccccc2OCC1COCC(=O)N1CCC(c2cccc(F)c2)(N2CCN(C)CC2)CC1 (centres unmarked) [Compound 222, 2-((4-(2-Chloro-6-methylphenylsulfonyl)-3,4-dihydro-2H-benzo[b][1,4]oxazin-3-yl)methoxy)-1-(4-(3-fluorophenyl)-4-(4-methylpiperazin-1-yl)piperidin-1-yl)ethanone], the inhibition at 10 µM [1] was 97% and the inhibition at 10 µM [2] was 97%.
CN(CCC1CCC(Cc2ccccc2)(N(C)C)CC1)C(=O)CC(NS(=O)(=O)c1ccc2ccccc2c1)c1ccccc1 (centres unmarked) [Compound 86, N-(2-(4-benzyl-4-(dimethylamino)cyclohexyl)ethyl)-N-methyl-3-(naphthalene-2-sulfonamido)-3-phenylpropanamide] was tested, and the inhibition at 10 µM [1] was 101% and the inhibition at 10 µM [2] was 99%.
O=C(COCC1CCCN1S(=O)(=O)c1c(Cl)cc(Cl)cc1Cl)NC1CCC(Cc2ccccc2)(N2CCCC2)CC1 (centres unmarked) [Compound 156, N-(4-benzyl-4-(pyrrolidin-1-yl)cyclohexyl)-2-((1-(2,4,6-trichlorophenylsulfonyl)pyrrolidin-2-yl)methoxy)acetamide] gave an inhibition at 10 µM [1] of 76% and an inhibition at 10 µM [2] of 100%.
With Cc1cc(S(=O)(=O)N2CCCCC2CCC(=O)N2CCC(Cc3ccccc3)(N(C)C)CC2)c(C)cc1Cl (centres unmarked) [Compound 80, 1-(4-benzyl-4-(dimethylamino)piperidin-1-yl)-3-(1-(4-chloro-2,5-dimethylphenylsulfonyl)piperidin-2-yl)propan-1-one] the inhibition at 10 µM [1] was 86% and the inhibition at 10 µM [2] was 99%.
Molecule CN(C)C1(Cc2ccccc2)CCN(C(=O)COCC2CCc3ccccc3N2S(=O)(=O)c2ccc(Cl)c(Cl)c2)CC1 (centres unmarked) [Compound 36, 1-(4-benzyl-4-(dimethylamino)piperidin-1-yl)-2-((1-(3,4-dichlorophenylsulfonyl)-1,2,3,4-tetrahydroquinolin-2-yl)methoxy)ethanone] has an inhibition at 10 µM [1] of 101% and an inhibition at 10 µM [2] of 101%.
Work on COc1cc(C)c(S(=O)(=O)N(C)CCOCC(=O)N(C)CC2CCC(CCc3ccccc3)(N3CCN(C)CC3)CC2)c(C)c1 (centres unmarked) [Compound 165, 2-(2-(4-methoxy-N,2,6-trimethylphenylsulfonamido)ethoxy)-N-methyl-N-((4-(4-methylpiperazin-1-yl)-4-phenethylcyclohexyl)methyl)acetamide] yielded an inhibition at 10 µM [1] of 103% and an inhibition at 10 µM [2] of 90%.
COc1cc(C)c(S(=O)(=O)N(C)CCOCC(=O)NC2CCC(Cc3ccccc3)(N3CCCCCC3)CC2)c(C)c1 (centres unmarked) [Compound 20, N-(4-(azepan-1-yl)-4-benzylcyclohexyl)-2-(2-(4-methoxy-N,2,6-trimethylphenylsulfonamido)ethoxy)acetamide] gave an inhibition at 10 µM [1] of 91% and an inhibition at 10 µM [2] of 69%.
CN1CCN(C2(c3cccc(F)c3)CCN(C(=O)COCC3COc4ccccc4N3S(=O)(=O)c3ccccc3C(F)(F)F)CC2)CC1 (centres unmarked) [Compound 223, 1-(4-(3-Fluorophenyl)-4-(4-methylpiperazin-1-yl)piperidin-1-yl)-2-((4-(2-(trifluoromethyl)phenylsulfonyl)-3,4-dihydro-2H-benzo[b][1,4]oxazin-3-yl)methoxy)ethanone] gave an inhibition at 10 µM [1] of 84% and an inhibition at 10 µM [2] of 97%.
For COc1cc(C)c(S(=O)(=O)N2CCCCC2COCC(=O)N2CCC(c3ccccc3)(N3CCN(c4ccncc4)CC3)CC2)c(C)c1 (centres unmarked) [Compound 62, 2-((1-(4-methoxy-2,6-dimethylphenylsulfonyl)piperidin-2-yl)methoxy)-1-(4-phenyl-4-(4-(pyridin-4-yl)piperazin-1-yl)piperidin-1-yl)ethanone], the inhibition at 10 µM [1] was 103% and the inhibition at 10 µM [2] was 100%.
For COc1cc(C)c(S(=O)(=O)N2CCCCC2CCOCC(=O)N2CCC(c3cccc(F)c3)(N3CCN(C)CC3)CC2)c(C)c1 (centres unmarked) [Compound 227, 1-(4-(3-Fluorophenyl)-4-(4-methylpiperazin-1-yl)piperidin-1-yl)-2-(2-(1-(4-methoxy-2,6-dimethylphenylsulfonyl)piperidin-2-yl)ethoxy)ethanone], the inhibition at 10 µM [1] was 100% and the inhibition at 10 µM [2] was 99%.
With O=C(COCC1CCCN(S(=O)(=O)c2c(Cl)cc(Cl)cc2Cl)C1)NC1CCC(c2ccccc2)(N2CCCC2)CC1 (centres unmarked) [Compound 192, N-(4-phenyl-4-(pyrrolidin-1-yl)cyclohexyl)-2-((1-(2,4,6-trichlorophenylsulfonyl)piperidin-3-yl)methoxy)acetamide] the inhibition at 10 µM [1] was 99% and the inhibition at 10 µM [2] was 50%.
With CN(CC1CCC(CCc2ccccc2)(N2CCCC2)CC1)C(=O)CC1CCCCN1S(=O)(=O)c1cccc(C(F)(F)F)c1 (centres unmarked) [Compound 38, N-methyl-N-((4-phenethyl-4-(pyrrolidin-1-yl)cyclohexyl)methyl)-2-(1-(3-(trifluoromethyl)phenylsulfonyl)piperidin-2-yl)acetamide] the inhibition at 10 µM [1] was 98% and the inhibition at 10 µM [2] was 101%.
With CN1CCN(C2(Cc3ccccc3)CCN(C(=O)CC(NS(=O)(=O)c3ccc4ccccc4c3)c3ccccc3)CC2)CC1 (centres unmarked) [Compound 118, N-(3-(4-benzyl-4-(4-methylpiperazin-1-yl)piperidin-1-yl)-3-oxo-1-phenylpropyl)naphthalene-2-sulfonamide] the inhibition at 10 µM [1] was 101% and the inhibition at 10 µM [2] was 69%.
